Results on 6 molecules are retold here after US20080213252A1, “METHODS OF TREATING ITCH” (priority 2007, published 2008).

Where no end group is shown, it is not given here.

In one test the target is T1, mucunain (Mucuna pruriens, UniProt B2LSD2).
T1 construct: made in house; host or cells: E. coli ER2566 (pTWIN1MUC1300) for recombinant mucunain; native mucunain extracted from M. pruriens spicules
Put plainly: Chromogenic substrate assay, inhibition of mucunain by E64. The class given is biochemical, M. pruriens. The following applies: native mucunain 0.9 μM, recombinant mucunain 2.7 μM. From the text:
Papain served as a control cysteine protease.

The subject of a further test is PAR4. The test is described as follows: PAR activation by cytoplasmic calcium release, ratiometric Fura-2 imaging, PAR4 transfected HeLa cells. The class given is cell-based, human. The note with it: for calcium influx in PAR4 transfected HeLa cells: Fura-2 340:380 ratiometric imaging. As to the method:
PAR activation observed by cytoplasmic calcium release—The four human PAR cDNAs were obtained from commercial sources and cloned into the pcDNA3.1 (−) vector (Invitrogen). HeLa cells were transfected with 10 μg of vector cDNA using Lipofectamine 2000 (Invitrogen) and cultured for two days in 96-well glass bottom plates at 30,000 cells/well. Cells were loaded with Fura-2 as follows. The medium was aspirated and replaced with 100 μl of complete DMEM containing 2 μM Fura-2 (Invitrogen) and kept at room temperature in the dark for 1 hr. The medium was again aspirated and each well received 90 μl of HEPES buffered saline (20 mM HEPES, 115 mM NaCl, 5.4 mM KCl, 2 mM CaCl2, 0.8 mM MgCl2, 13.8 mM glucose, pH 7.4). Plates were observed using a Zeiss Axiovert 200M microscope equipped with a filter wheel for monitoring excitation at 340 and 380 nm. Axiovision software, version 4.6 was used to analyze ratiometric calcium imaging of the cells. Ten μl of protease was applied approximately 20 seconds after the start of excitation. Images were taken every 5 seconds, beginning at time zero, for 3 minutes. The software was used to analyze the 37 images taken during each 3-minute period.

In another test the test system is skin of volunteers. Put plainly: Psychophysics: itch sensation after insertion of native or reconstituted cowhage spicules into skin. The class given is in vivo. The note with it: human volunteers; for blocking of itch and other sensations evoked by mucunain-containing spicules: E64 added during reconstitution of spicules; for itch evoked by substance loaded into inactivated spicules: autoclaved spicules soaked in the substance and dried; for itch evoked by PAR4 peptide agonist incubated with inactivated spicules: spicules incubated with peptide at 10 mM. As to the method: Reconstitution of spicules—Native spicules were inactivated by autoclaving for 1 hour and reconstituted with native and recombinant mucunains in the presence or absence of cysteine protease inhibitor, E64. Typically, 50 mg of inactivated spicules were mixed with 0.4 ml of 28 μM mucunain in a 2 ml microfuge tube, vortexed, and dried in a Speed-vac for 2 hours at room temperature. These spicules were then considered as ‘reconstituted’ with the protease alone. Spicules prepared in a similar manner but with E64 added at twice the concentration of mucunain, are considered reconstituted with the protease and the inhibitor.
Psychophysics—These protocols were approved by the Yale University Human Investigation Committee. A row of 10 cowhage spicules were lightly pasted to the flattened end of a Weck-Cel surgical strip, spaced at 1 mm, and applied parallel to the surface of the skin at the mid-volar forearm. […] Every 30 sec, subjects rated the magnitude of each of three qualities of sensation: Itch, pricking/stinging, and burning using the Generalized Labeled Magnitude Scale (Bartoshuk et al. 2004) that employs appropriately placed intensity descriptors of “none”, “barely detectable”, “weak”, “moderate”, “strong”, “very strong” and, at the top of the scale, “the strongest sensation imaginable.” Voltages derived from each subject's movements of a computer mouse that controlled a cursor on a visual representation of this scale were converted to numbers between 0 and 100 and plotted for each quality at successive intervals of 30 s up to 20 min after the insertion of cowhage. Each of nine subjects received, in separate tests, five types of cowhage spicules: native cowhage spicules, heat-inactivated spicules that had been soaked in a solution of cowhage extract containing E64, or the same but without E64, and heat-inactivated spicules that had been previously soaked in a solution of recombinant mucunain containing E64, or the same but without E64. The subject and experimenter were blinded as to the type of spicule administered.
The sensory effects of mucunain was further analyzed. A method of introducing mucunain into the skin of volunteers that would mimic the approach associated with the spicules was developed. Such a method would decrease or eliminate the pain associated with using conventional needles as such nociception might interfere with the sensation of itch. Spicules are inactivated when autoclaved but appear to maintain their physical structure. Inactivated spicules were soaked in a solution containing native or recombinant mucunain and then dried. One gram of fresh spicules was stirred for one hour at 4° C. with 20 ml of 0.1 M potassium phosphate buffer (pH 4.8) and 0.9% NaCl and the liquid removed by filtration through cheesecloth. The spicules were teased from the cheesecloth and autoclaved under dry heat for 30 minutes. The mucuna extract was passed through molecular filters to remove components with molecular weights of less than 9 kD. 50 mg of the inactivated, dried spicules were then soaked in 0.05 ml of the filtered extract containing 0.07 mg of cysteine protease (as determined by non-interfering protein assay) with or without 3.5 micrograms of E-64. The spicules were subsequently dried in a Speed-Vac for 2 hours. These spicules were considered ‘reconstituted’ with one batch containing the cysteine protease and its inhibitor and another batch, the protease alone. An analogous approach was used to load spicules with papain or histamine.

T1 sequence (B2LSD2 99-430): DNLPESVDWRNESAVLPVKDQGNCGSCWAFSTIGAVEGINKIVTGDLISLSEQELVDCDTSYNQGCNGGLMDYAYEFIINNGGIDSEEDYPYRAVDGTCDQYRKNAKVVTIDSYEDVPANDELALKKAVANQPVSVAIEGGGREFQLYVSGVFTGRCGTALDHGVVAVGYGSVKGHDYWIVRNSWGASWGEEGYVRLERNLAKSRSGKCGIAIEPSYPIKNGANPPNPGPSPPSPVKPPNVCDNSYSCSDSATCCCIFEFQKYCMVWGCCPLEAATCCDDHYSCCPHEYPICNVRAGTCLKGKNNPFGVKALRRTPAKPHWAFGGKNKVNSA

As for `CC(C)C[C@H](NC(=O)[C@H]1O[C@@H]1C(=O)O)C(=O)NCCCCNC(=N)N` (relative stereo) [E64, 1-[N-[(L-3-trans-carboxyoxirane-2-carbonyl)-L-leucyl]amino]-4-guanidinobutane], the “blocking of Z-FR-pNA cleavage by mucunain” value on mucunain is “blocked”. Further, the “blocking of protease-induced PAR4 activation” value with PAR4 (native mucunain, recombinant mucunain and papain in the presence of E64) is on record as “blocked”. The figures for the “blocking of itch and other sensations evoked by mucunain-containing spicules” value with skin of volunteers and in the test on skin of volunteers (listed as E-64) were “blocked all sensations” and “effective in preventing itch”, respectively.

Take `NCCc1c[nH]cn1` [histamine]: the “itch evoked by substance loaded into inactivated spicules” value in the test on skin of volunteers was “produced itch”.

With AYPGKF-NH2, the “calcium influx in PAR4 transfected HeLa cells” value (from here on “calcium influx”) in the test with PAR4 is “induced calcium influx”. Further, in the test on skin of volunteers, the “itch evoked by PAR4 peptide agonist incubated with inactivated spicules” value is given as “elicited itch”.

In the case of GYPGKF-NH2 [ID; No. 28], the “itch evoked by PAR4 peptide agonist incubated with inactivated spicules” value in the test on skin of volunteers is “elicited itch”.

For the molecule bromelain, the “calcium influx” value in the test on PAR4 is recorded as “induced calcium influx”. Besides, in the test with skin of volunteers, the “itch evoked by substance loaded into inactivated spicules” value is “produced itch”.

For ficin, the “calcium influx” value with PAR4 is reported as “induced calcium influx”.
